Numbers after ± are expanded uncertainties.
Experiment: molar heat capacity at constant pressure
Conditions: 101.33 kPa, Vacuum adiabatic calorimetry

CCCCn1cc[n+](C)c1.[I-] [1-butyl-3-methylimidazolium iodide]
molar heat capacity at constant pressure [J/K/mol]
Conditions	Crystal	Glass
4.858 K	0.768 ± 0.023	–
5 K	0.845 ± 0.031	1.57 ± 0.04
5.042 K	–	1.601 ± 0.041
5.112 K	0.909 ± 0.026	–
5.32 K	–	1.862 ± 0.046
5.371 K	1.07 ± 0.029	–
5.604 K	–	2.149 ± 0.052
5.638 K	1.249 ± 0.033	–
5.895 K	–	2.463 ± 0.059
5.91 K	1.452 ± 0.037	–
6.217 K	1.701 ± 0.042	–
6.222 K	–	2.842 ± 0.066
6.56 K	2.006 ± 0.048	–
6.586 K	–	3.292 ± 0.076
6.91 K	2.343 ± 0.055	–
6.955 K	–	3.776 ± 0.085
7.265 K	2.714 ± 0.063	–
7.328 K	–	4.295 ± 0.096
7.496 K	–	4.532 ± 0.1
7.625 K	3.114 ± 0.071	–
7.705 K	–	4.838 ± 0.11
7.884 K	–	5.11 ± 0.11
7.99 K	3.553 ± 0.08	–
8.267 K	–	5.703 ± 0.12
8.357 K	4.021 ± 0.09	–
8.654 K	–	6.323 ± 0.14
8.728 K	4.513 ± 0.1	–
9.042 K	–	6.967 ± 0.15
9.104 K	5.04 ± 0.11	–
9.433 K	–	7.63 ± 0.16
9.483 K	5.597 ± 0.12	–
9.825 K	–	8.316 ± 0.18
9.868 K	6.177 ± 0.13	–
10 K	6.39 ± 0.1	8.62 ± 0.15
10.33 K	–	9.205 ± 0.11
10.36 K	6.957 ± 0.089	–
10.94 K	–	10.33 ± 0.13
10.95 K	7.92 ± 0.099	–
11.56 K	8.937 ± 0.11	11.49 ± 0.14
12.16 K	9.99 ± 0.12	–
12.18 K	–	12.66 ± 0.15
12.77 K	11.08 ± 0.13	–
12.8 K	–	13.88 ± 0.16
13.38 K	12.19 ± 0.14	–
13.42 K	–	15.11 ± 0.18
14 K	13.34 ± 0.16	–
14.05 K	–	16.37 ± 0.19
14.63 K	14.54 ± 0.17	–
14.69 K	–	17.68 ± 0.2
15 K	15.25 ± 0.17	18.31 ± 0.2
15.25 K	15.73 ± 0.18	–
15.47 K	–	19.26 ± 0.22
15.99 K	17.18 ± 0.2	–
16.42 K	–	21.23 ± 0.24
16.84 K	18.83 ± 0.21	–
17.37 K	–	23.19 ± 0.26
17.7 K	20.48 ± 0.23	–
18.32 K	–	25.15 ± 0.28
18.56 K	22.1 ± 0.25	–
19.27 K	–	27.09 ± 0.3
19.42 K	23.73 ± 0.26	–
20 K	24.83 ± 0.15	28.59 ± 0.17
20.22 K	–	29.03 ± 0.17
20.29 K	25.36 ± 0.15	–
21.48 K	–	31.59 ± 0.18
21.5 K	27.65 ± 0.16	–
23.05 K	–	34.73 ± 0.19
23.06 K	30.6 ± 0.17	–
24.62 K	33.53 ± 0.18	–
24.63 K	–	37.87 ± 0.2
25 K	34.2 ± 0.19	38.6 ± 0.2
26.19 K	36.35 ± 0.19	–
26.21 K	–	40.93 ± 0.21
27.59 K	38.83 ± 0.2	–
27.79 K	–	43.88 ± 0.22
29.09 K	41.41 ± 0.2	–
29.96 K	–	47.88 ± 0.23
30 K	42.93 ± 0.19	47.93 ± 0.22
30.68 K	44.04 ± 0.2	–
32.35 K	–	52.05 ± 0.23
32.43 K	46.84 ± 0.21	–
34.29 K	–	55.25 ± 0.25
34.33 K	49.79 ± 0.22	–
35 K	50.8 ± 0.23	56.37 ± 0.26
36.21 K	–	58.25 ± 0.26
36.25 K	52.67 ± 0.24	–
38.13 K	–	61.21 ± 0.27
38.16 K	55.41 ± 0.25	–
40 K	58.01 ± 0.26	64 ± 0.29
40.04 K	–	64.03 ± 0.28
40.07 K	58.07 ± 0.26	–
42.06 K	–	66.96 ± 0.3
42.08 K	60.84 ± 0.27	–
44.18 K	–	69.94 ± 0.31
44.19 K	63.71 ± 0.28	–
45 K	64.77 ± 0.29	71.05 ± 0.31
46.3 K	66.48 ± 0.29	72.87 ± 0.32
48.41 K	69.11 ± 0.3	–
48.42 K	–	75.66 ± 0.33
50 K	71.06 ± 0.31	77.66 ± 0.34
50.52 K	71.72 ± 0.32	–
50.54 K	–	78.37 ± 0.34
52.64 K	74.22 ± 0.33	–
52.66 K	–	80.96 ± 0.35
54.76 K	76.59 ± 0.34	–
54.78 K	–	83.48 ± 0.37
56.88 K	78.93 ± 0.35	–
56.91 K	–	85.88 ± 0.38
59.01 K	81.2 ± 0.36	–
59.04 K	–	88.27 ± 0.39
60 K	82.26 ± 0.36	89.36 ± 0.39
61.14 K	83.4 ± 0.36	–
61.17 K	–	90.59 ± 0.4
63.27 K	85.56 ± 0.37	–
63.31 K	–	92.93 ± 0.41
65.4 K	87.69 ± 0.38	–
65.45 K	–	95.14 ± 0.41
67.54 K	89.76 ± 0.39	–
67.59 K	–	97.4 ± 0.42
69.67 K	91.79 ± 0.4	–
69.73 K	–	99.56 ± 0.43
70 K	92.11 ± 0.4	99.8 ± 0.43
71.91 K	93.89 ± 0.41	–
71.97 K	–	101.8 ± 0.4
74.26 K	96.02 ± 0.42	–
74.32 K	–	104.1 ± 0.5
76.61 K	98.12 ± 0.43	–
76.67 K	–	106.3 ± 0.5
78.96 K	100.2 ± 0.4	–
79.03 K	–	108.5 ± 0.5
80 K	101 ± 0.4	109.4 ± 0.4
80.72 K	–	110.2 ± 0.5
80.99 K	102 ± 0.4	–
81.32 K	102.2 ± 0.4	–
81.39 K	–	110.6 ± 0.5
82.53 K	–	111.7 ± 0.5
82.87 K	103.5 ± 0.5	–
83.68 K	104.1 ± 0.5	–
83.75 K	–	112.7 ± 0.5
84.35 K	–	113.3 ± 0.5
84.75 K	105 ± 0.5	–
86.18 K	–	114.8 ± 0.5
86.65 K	106.5 ± 0.5	–
88.03 K	–	116.3 ± 0.5
88.56 K	108 ± 0.5	–
89.88 K	–	117.8 ± 0.5
90 K	109.2 ± 0.5	117.9 ± 0.6
90.48 K	109.5 ± 0.5	–
91.74 K	–	119.3 ± 0.5
92.41 K	110.9 ± 0.5	–
93.62 K	–	120.8 ± 0.5
94.34 K	112.5 ± 0.5	–
95.5 K	–	122.3 ± 0.5
96.29 K	113.9 ± 0.5	–
97.39 K	–	123.7 ± 0.5
98.25 K	115.3 ± 0.5	–
99.29 K	–	125.2 ± 0.6
100 K	116.6 ± 0.6	125.7 ± 0.6
100.21 K	116.7 ± 0.5	–
101.2 K	–	126.6 ± 0.6
102.18 K	118.2 ± 0.5	–
103.12 K	–	128 ± 0.6
104.16 K	119.5 ± 0.5	–
105.04 K	–	129.4 ± 0.6
106.14 K	120.9 ± 0.5	–
106.97 K	–	130.8 ± 0.6
107.31 K	121.7 ± 0.5	–
108.13 K	122.3 ± 0.5	–
108.91 K	–	132.2 ± 0.6
109.45 K	123.1 ± 0.5	–
110 K	123.5 ± 0.6	132.9 ± 0.6
110.13 K	123.6 ± 0.5	–
110.85 K	–	133.5 ± 0.6
111.45 K	124.4 ± 0.6	–
112.13 K	124.9 ± 0.6	–
112.8 K	–	134.9 ± 0.6
113.46 K	125.7 ± 0.6	–
114.14 K	126.3 ± 0.6	–
114.75 K	–	136.2 ± 0.6
115.47 K	127.1 ± 0.6	–
116.16 K	127.5 ± 0.6	–
116.71 K	–	137.6 ± 0.6
117.49 K	128.4 ± 0.6	–
118.17 K	128.8 ± 0.6	–
118.68 K	–	138.9 ± 0.6
119.51 K	129.7 ± 0.6	–
120 K	130 ± 0.6	139.8 ± 0.6
120.2 K	130.1 ± 0.6	–
120.64 K	–	140.2 ± 0.6
121.54 K	130.9 ± 0.6	–
122.22 K	131.4 ± 0.6	–
122.62 K	–	141.5 ± 0.6
123.57 K	132.2 ± 0.6	–
124.25 K	132.7 ± 0.6	–
124.59 K	–	142.8 ± 0.6
125.6 K	133.5 ± 0.6	–
126.29 K	133.9 ± 0.6	–
126.57 K	–	144.1 ± 0.6
127.64 K	134.7 ± 0.6	–
128.33 K	135.1 ± 0.6	–
128.55 K	–	145.4 ± 0.6
129.68 K	135.9 ± 0.6	–
130 K	136.1 ± 0.6	146.4 ± 0.7
130.37 K	136.4 ± 0.6	–
130.54 K	–	146.7 ± 0.6
131.72 K	137.2 ± 0.6	–
132.41 K	137.6 ± 0.6	–
132.53 K	–	148 ± 0.6
133.76 K	138.4 ± 0.6	–
134.46 K	138.8 ± 0.6	–
134.52 K	–	149.3 ± 0.6
135.81 K	139.6 ± 0.6	–
136.51 K	140.1 ± 0.6	150.6 ± 0.7
137.87 K	140.8 ± 0.6	–
138.51 K	–	151.8 ± 0.7
138.56 K	141.3 ± 0.6	–
139.92 K	142.1 ± 0.6	–
140 K	142.1 ± 0.6	152.8 ± 0.7
140.51 K	–	153.1 ± 0.7
140.62 K	142.5 ± 0.6	–
141.98 K	143.3 ± 0.6	–
142.51 K	–	154.4 ± 0.7
142.68 K	143.7 ± 0.6	–
144.04 K	144.5 ± 0.6	–
144.51 K	–	155.7 ± 0.7
144.74 K	144.9 ± 0.6	–
146.1 K	145.7 ± 0.6	–
146.51 K	–	157 ± 0.7
146.8 K	146.1 ± 0.6	–
148.16 K	146.9 ± 0.6	–
148.52 K	–	158.3 ± 0.7
148.86 K	147.3 ± 0.6	–
150 K	147.9 ± 0.7	159.3 ± 0.7
150.22 K	148.1 ± 0.6	–
150.52 K	–	159.6 ± 0.7
150.92 K	148.5 ± 0.6	–
152.28 K	149.3 ± 0.6	–
152.53 K	–	160.9 ± 0.7
152.98 K	149.7 ± 0.7	–
154.35 K	150.5 ± 0.7	–
154.54 K	–	162.2 ± 0.7
155.05 K	150.8 ± 0.7	–
156.41 K	151.6 ± 0.7	–
156.54 K	–	163.5 ± 0.7
157.11 K	152.1 ± 0.7	–
158.48 K	152.8 ± 0.7	–
158.55 K	–	164.8 ± 0.7
159.18 K	153.2 ± 0.7	–
160 K	153.7 ± 0.7	165.7 ± 0.7
160.54 K	154 ± 0.7	–
160.56 K	–	166.1 ± 0.7
161.24 K	154.4 ± 0.7	–
162.57 K	–	167.4 ± 0.7
162.61 K	155.2 ± 0.7	–
163.31 K	155.6 ± 0.7	–
164.58 K	–	168.7 ± 0.7
164.68 K	156.4 ± 0.7	–
165.38 K	156.8 ± 0.7	–
166.59 K	–	170 ± 0.7
166.74 K	157.5 ± 0.7	–
167.44 K	158 ± 0.7	–
168.59 K	–	171.4 ± 0.7
